What was measured:
Assay in all cases: relative viability (nuclei count vs DMSO), 5 days (fraction); higher = more cells survive
Pemetrexed + OSI-027 = compound: Nc1nc2[nH]cc(CCc3ccc(C(=O)N[C@@H](CCC(=O)O)C(=O)O)cc3)c2c(=O)[nH]1 [Pemetrexed] + COc1cccc2cc(-c3nc([C@H]4CC[C@H](C(=O)O)CC4)n4ncnc(N)c34)[nH]c12 [OSI-027] (partner 0.5 µM)
Outline: (§1)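 Lung cancer cell lines were pin-tool dosed in 1536-well plates on the day after seeding, with either a lone drug or a fixed anchor-drug dose plus five library-drug doses (not always all listed) in √10 steps. Nuclei were counted on 4× images after 5 days. Relative viability is the ratio of treated-well to vehicle-well nuclei counts, with each value a median of duplicate plates.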

Idelalisib + Dasatinib = compound: CC[C@H](Nc1ncnc2[nH]cnc12)c1nc2cccc(F)c2c(=O)n1-c1ccccc1 [Idelalisib] + Cc1nc(Nc2ncc(C(=O)Nc3c(C)cccc3Cl)s2)cc(N2CCN(CCO)CC2)n1 [Dasatinib] (partner 0.075 µM)
Outline: as §1

Pemetrexed + Linsitinib = compound: Nc1nc2[nH]cc(CCc3ccc(C(=O)N[C@@H](CCC(=O)O)C(=O)O)cc3)c2c(=O)[nH]1 [Pemetrexed] + C[C@]1(O)C[C@@H](c2nc(-c3ccc4ccc(-c5ccccc5)nc4c3)c3c(N)nccn32)C1 [Linsitinib] (partner 1 µM)
Outline: as §1

| Cell Line | relative viability (Pemetrexed + OSI-027; first compound 0.002 µM) | relative viability (Pemetrexed + OSI-027; first compound 0.006325 µM) | relative viability (Pemetrexed + OSI-027; first compound 0.02 µM) | relative viability (Pemetrexed + OSI-027; first compound 0.06325 µM) | relative viability (Pemetrexed + OSI-027; first compound 0.2 µM) | relative viability (Idelalisib + Dasatinib; first compound 0.04 µM) | relative viability (Idelalisib + Dasatinib; first compound 0.1265 µM) | relative viability (Idelalisib + Dasatinib; first compound 0.4 µM) | relative viability (Idelalisib + Dasatinib; first compound 1.265 µM) | relative viability (Idelalisib + Dasatinib; first compound 4 µM) | relative viability (Pemetrexed + Linsitinib; first compound 0.002 µM) | relative viability (Pemetrexed + Linsitinib; first compound 0.006325 µM) | relative viability (Pemetrexed + Linsitinib; first compound 0.02 µM) | relative viability (Pemetrexed + Linsitinib; first compound 0.06325 µM) | relative viability (Pemetrexed + Linsitinib; first compound 0.2 µM) |
| --- | --- | --- | --- | --- | --- | --- | --- | --- | --- | --- | --- | --- | --- | --- | --- |
| NCI-H1355 | 0.391 | 0.389 | 0.466 | 0.509 | 0.387 | 0.631 | 0.791 | 0.504 | 0.561 | 0.518 | 0.8 | 0.801 | 0.824 | 0.881 | 0.72 |
| NCI-H1395 | 0.6 | 0.641 | 0.727 | 0.675 | 0.694 | 0.417 | 0.369 | 0.375 | 0.385 | 0.366 | 0.99 | 0.975 | 1.1 | 1.1 | 0.998 |
| NCI-H1437 | – | 0.828 | 0.803 | 0.432 | 0.346 | 0.378 | 0.46 | 0.307 | 0.453 | 0.478 | 0.898 | 0.965 | 0.967 | 0.49 | 0.252 |
| NCI-H1563 | 0.731 | 0.695 | 0.803 | 0.728 | 0.778 | 0.473 | 0.491 | 0.472 | 0.496 | 0.388 | 1.1 | 1.13 | 1.17 | 1.18 | 1.17 |
| NCI-H1651 | 0.61 | 0.66 | 0.805 | 0.624 | 0.717 | 0.305 | 0.314 | 0.318 | 0.518 | 0.332 | 0.995 | 0.977 | 0.987 | 0.903 | 0.895 |
| NCI-H1666 | 0.961 | 0.758 | 0.955 | 0.906 | 0.79 | 0.79 | 0.863 | 0.676 | 0.79 | 0.773 | 0.71 | 0.774 | 0.829 | 0.73 | 0.615 |
| NCI-H1734 | 0.65 | 0.564 | 0.675 | 0.571 | 0.53 | 0.468 | 0.487 | 0.338 | 0.454 | 0.374 | 0.909 | 0.818 | 0.971 | 0.861 | 0.718 |
| NCI-H1755 | 0.685 | 0.797 | 0.782 | 0.691 | 0.667 | 0.399 | 0.456 | 0.312 | 0.366 | 0.338 | 0.883 | 0.966 | 1.02 | 0.988 | 0.951 |
| NCI-H1792 | 0.735 | 0.808 | 0.778 | 0.715 | 0.744 | 0.469 | 0.92 | 0.68 | 0.794 | 0.569 | 0.499 | 0.532 | 0.57 | 0.469 | 0.519 |
| NCI-H1793 | 0.251 | 0.259 | 0.309 | 0.284 | 0.289 | 0.379 | 0.372 | 0.294 | 0.374 | 0.323 | 0.862 | 0.722 | 0.676 | 0.841 | 0.779 |
| NCI-H1915 | 0.58 | 0.631 | 0.661 | 0.609 | 0.573 | 0.425 | 0.316 | 0.284 | 0.357 | 0.3 | 1.11 | 1.08 | 1.13 | 1.11 | 1.07 |
| NCI-H1944 | – | 0.512 | 0.43 | 0.405 | 0.403 | 0.241 | 0.205 | 0.169 | 0.196 | 0.202 | 1.09 | 1.02 | 1.17 | 1.19 | 1.21 |
| NCI-H1975 | 0.528 | 0.681 | 0.873 | 0.557 | 0.394 | 0.363 | 0.436 | 0.263 | 0.402 | 0.293 | – | 0.904 | 1.06 | 0.793 | 0.526 |
| NCI-H1993 | 0.609 | 0.524 | 0.503 | 0.504 | 0.585 | 0.785 | 0.562 | 0.51 | 0.51 | 0.522 | 0.824 | 0.697 | 0.815 | 0.698 | 0.692 |
| NCI-H2009 | 0.573 | 0.607 | 0.749 | 0.66 | 0.683 | 0.335 | 0.302 | 0.266 | 0.252 | 0.197 | 0.979 | 1.1 | 1.3 | 1.17 | 1.11 |
| NCI-H2023 | 0.248 | 0.38 | 0.464 | 0.295 | 0.166 | 0.625 | 0.549 | 0.438 | 0.487 | 0.375 | 0.738 | 0.537 | 0.693 | 0.55 | 0.304 |
| NCI-H2085 | 0.653 | 0.73 | 0.769 | 0.85 | 0.848 | 0.244 | 0.19 | 0.188 | 0.246 | 0.19 | 0.872 | 0.828 | 0.881 | 0.942 | 0.97 |
| NCI-H2087 | 0.55 | 0.512 | 0.538 | 0.589 | 0.524 | 0.966 | 0.906 | 0.696 | 1.03 | 0.514 | 0.886 | 0.889 | 1.02 | 0.767 | 0.635 |
| NCI-H2126 | 0.601 | 0.805 | 0.808 | 0.796 | 0.691 | 0.548 | 0.664 | 0.522 | 0.62 | 0.557 | 0.696 | 0.686 | 0.718 | 0.692 | 0.729 |
| NCI-H2228 | 0.506 | – | 0.566 | 0.565 | 0.218 | 0.562 | 0.586 | 0.408 | 0.507 | 0.524 | 0.708 | 0.472 | 0.906 | 0.553 | 0.425 |
| NCI-H2347 | 0.296 | 0.292 | 0.49 | 0.406 | 0.339 | 0.416 | 0.346 | 0.25 | 0.292 | 0.325 | 0.874 | 0.932 | 0.938 | 0.716 | 0.521 |
| NCI-H2405 | 0.628 | 0.597 | 0.67 | 0.641 | 0.663 | 0.25 | 0.201 | 0.199 | 0.245 | 0.217 | 1.01 | 0.913 | 1.03 | 0.894 | 0.975 |
| NCI-H3122 | 0.857 | 0.879 | 0.923 | 0.524 | 0.221 | 0.646 | 0.55 | 0.552 | 0.817 | 0.467 | 1.01 | 1 | 0.949 | 1.01 | 0.646 |
| PC-3 [JPC-3] | 0.59 | 0.786 | 0.715 | 0.916 | 0.765 | 0.814 | 0.973 | 0.908 | 0.879 | 0.892 | 0.876 | 0.923 | 0.951 | 0.981 | 0.944 |
| PC-14 | 0.681 | 0.769 | 1.16 | 0.197 | 0.102 | 0.273 | 0.266 | 0.248 | 0.0361 | 0.223 | 0.922 | 0.901 | 1.01 | 0.759 | 0.184 |
| RERF-LC-KJ | 0.528 | 0.508 | 0.666 | 0.546 | 0.451 | 0.808 | 0.829 | 0.726 | 0.687 | 0.668 | 0.856 | 0.845 | 0.926 | 0.912 | 0.752 |
| SK-LU-1 | 0.312 | 0.319 | 0.398 | 0.352 | 0.34 | 0.165 | 0.163 | 0.153 | 0.153 | 0.186 | 1.01 | 1.03 | 1.15 | 0.951 | 0.968 |
| SK-MES-1 | 0.72 | 0.611 | 0.615 | 0.572 | 0.554 | 0.33 | 0.306 | 0.208 | 0.199 | 0.187 | 1.01 | 1.02 | 1.07 | 0.984 | 0.955 |
| SW 1573 | 0.602 | 0.465 | 0.718 | 0.646 | 0.61 | 0.508 | 0.475 | 0.503 | 0.324 | 0.376 | 0.794 | 0.761 | 0.7 | 0.752 | 0.837 |

Source: the supplement of paper PMC10307832
